# Assay results reported in patent publication US20050245399A1, “Pyrazole derivatives as herbicidal compositions containing them” (ISHIHARA SANGYO KAISHA, LTD., priority 2004, published 2005).
# How the values were obtained:
# Format in all cases: in vivo
# [1] = system: velvetleaf (Abutilon theophrasti): ABUTH; assay: Test Example 1 pre-emergence herbicidal activity, ABUTH; conditions: visually observed 20th to 23rd day after application
# Text: (§1) Upland field soil was put into a 1/170,000 ha pot, and seeds of various plants {1. barnyardgrass (Echinochloa crus-galli L.): ECHCG, 2. crabgrass (Digitaria sanguinalis L.): DIGSA, 3. green foxtail (Setaria viridis L.): SETVI, 4. redroot pigweed (Amaranthus retroflexus L.): AMARE, 5. prickly sida (Sida spinosa L.): SEDSP, 6. velvetleaf (Abutilon theophrasti): ABUTH, 7. common cocklebur (Xanthium strumarium L.): XANST, 8. rice (Oryza sativa L.): ORYSA, 9. wheat (Triticum aestivum L.): TRZAX, 10. corn (Zea mays L.): ZEAMX, 11. soybean (Glycine max Merr.): GLXMA} were sown. Then, one day after the sowing, a wettable powder or emulsifiable concentrate having the compound of the present invention formulated in accordance with a usual formulation method, was weighed so that the active ingredient would be a predetermined amount and diluted with water in an amount of 500 L/ha. The herbicide adjusted was applied by a small size sprayer for preemergence treatment. On the 20th to 23rd day after the application of the herbicide, the growth of the respective plants was visually observed, and the herbicidal effects were evaluated by growth controlling degrees (%) ranging from 0 (equivalent to the untreated control) to 100 (complete kill), whereby the results shown in Table 4, were obtained. Compound Nos. in Table 4 correspond to Compound Nos. in Table 1 and 2 given hereinbefore.
# [2] = system: soybean (Glycine max Merr.): GLXMA; assay: Test Example 1 pre-emergence herbicidal activity, GLXMA; conditions: visually observed 20th to 23rd day after application
# Text: as §1
# [3] = system: barnyardgrass (Echinochloa crus-galli L.), ECHCG; assay: Test Example 2 post-emergence (foliage treatment) herbicidal activity, ECHCG; conditions: 63 g a.i./ha
# Text: (§2) Upland field soil was put into a 1/170,000 ha pot, and seeds of various plants were sown. Then, when the plants reached predetermined leaf stages {1. barnyardgrass (Echinochloa crus-galli L.), ECHCG: 1.1-2.1 leaf stage, 2. crabgrass (Digitaria sanguinalis L.), DIGSA: 1.0-2.0 leaf stage, 3. green foxtail (Setaria viridis L.), SETVI: 1.0-2.2 leaf stage, 4. redroot pigweed (Amaranthus retroflexus L.), AMARE: 0.1-1.5 leaf stage, 5. prickly sida (Sida spinosa L.), SIDSP: 0.1-0.6 leaf stage, 6. velvetleaf (Abutilon theophrasti), ABUTH: 0.1-0.6 leaf stage, 7. common cocklebur (Xanthium strumarium L.), XANST: 0.1 leaf stage, 8. rice (Oryza sativa L.), ORYSA; 1.0-2 leaf stage, 9. wheat (Triticum aestivum L.), TRZAX: 2.3-3.5 leaf stage, 10. corn (Zea mays L.), ZEAMXN 2.1-2.6 leaf stage, 11. soybean (Glycine max Merr.), GLXMA: primary leaf stage}, a wettable powder or emulsifiable concentrate having the compound of the present invention formulated in accordance with a usual formulation method, was weighed so that the active ingredient would be a predetermined amount, and diluted with water in an amount of 500 L/ha. To the diluted solution, 0.1% (v/v) of an agricultural spreader was added. The herbicide adjusted was applied by a small size sprayer for foliage treatment. On the 20th to 23rd day after the application of the herbicide, the growth of the respective plants was visually observed, and the herbicidal effects were evaluated by growth controlling degrees (%) ranging from 0 (equivalent to the untreated control) to 100 (complete kill), whereby the results shown in Table 5, were obtained. Compound Nos. in Table 5 correspond to Compound Nos. in Table 1 and 2 given hereinbefore.
# [4] = system: wheat (Triticum aestivum L.): TRZAX; assay: Test Example 1 pre-emergence herbicidal activity, TRZAX; conditions: visually observed 20th to 23rd day after application
# Text: as §1
# [5] = system: green foxtail (Setaria viridis L.), SETVI; assay: Test Example 2 post-emergence (foliage treatment) herbicidal activity, SETVI; conditions: 63 g a.i./ha
# Text: as §2
# [6] = system: barnyardgrass (Echinochloa crus-galli L.): ECHCG; assay: Test Example 1 pre-emergence herbicidal activity, ECHCG; conditions: visually observed 20th to 23rd day after application
# Text: as §1
# [7] = system: velvetleaf (Abutilon theophrasti), ABUTH; assay: Test Example 2 post-emergence (foliage treatment) herbicidal activity, ABUTH; conditions: 63 g a.i./ha
# Text: as §2
# [8] = system: soybean (Glycine max Merr.), GLXMA; assay: Test Example 2 post-emergence (foliage treatment) herbicidal activity, GLXMA; conditions: 63 g a.i./ha
# Text: as §2
# [9] = system: wheat (Triticum aestivum L.), TRZAX; assay: Test Example 2 post-emergence (foliage treatment) herbicidal activity, TRZAX; conditions: 63 g a.i./ha
# Text: as §2
# [10] = system: prickly sida (Sida spinosa L.): SEDSP; assay: Test Example 1 pre-emergence herbicidal activity, SIDSP; conditions: visually observed 20th to 23rd day after application
# Text: as §1
# [11] = system: crabgrass (Digitaria sanguinalis L.), DIGSA; assay: Test Example 2 post-emergence (foliage treatment) herbicidal activity, DIGSA; conditions: 63 g a.i./ha
# Text: as §2
# [12] = system: green foxtail (Setaria viridis L.): SETVI; assay: Test Example 1 pre-emergence herbicidal activity, SETVI; conditions: visually observed 20th to 23rd day after application
# Text: as §1
# [13] = system: rice (Oryza sativa L.): ORYSA; assay: Test Example 1 pre-emergence herbicidal activity, ORYSA; conditions: visually observed 20th to 23rd day after application
# Text: as §1
# [14] = system: prickly sida (Sida spinosa L.), SIDSP; assay: Test Example 2 post-emergence (foliage treatment) herbicidal activity, SIDSP; conditions: 63 g a.i./ha
# Text: as §2
# [15] = system: corn (Zea mays L.), ZEAMX; assay: Test Example 2 post-emergence (foliage treatment) herbicidal activity, ZEAMX; conditions: 63 g a.i./ha
# Text: as §2
# [16] = system: rice (Oryza sativa L.), ORYSA; assay: Test Example 2 post-emergence (foliage treatment) herbicidal activity, ORYSA; conditions: 63 g a.i./ha
# Text: as §2
# [17] = system: crabgrass (Digitaria sanguinalis L.): DIGSA; assay: Test Example 1 pre-emergence herbicidal activity, DIGSA; conditions: visually observed 20th to 23rd day after application
# Text: as §1
# [18] = system: corn (Zea mays L.): ZEAMX; assay: Test Example 1 pre-emergence herbicidal activity, ZEAMX; conditions: visually observed 20th to 23rd day after application
# Text: as §1
# [19] = system: redroot pigweed (Amaranthus retroflexus L.): AMARE; assay: Test Example 1 pre-emergence herbicidal activity, AMARE; conditions: visually observed 20th to 23rd day after application
# Text: as §1
SMILES,"growth controlling degree, ECHCO [3] [%]","growth controlling degree, SETVI [5] [%]","growth controlling degree, ABUTH [7] [%]","growth controlling degree, GLXMA [8] [%]","growth controlling degree, TRZAX [9] [%]","growth controlling degree, DIGSP [11] [%]","growth controlling degree, SIDSP [14] [%]","growth controlling degree, ZEAMX [15] [%]","growth controlling degree, ORYSA [16] [%]",Pre-emergence Herbicidal Activity ABUTH (growth controlling degree) ([1]; Rate 63 g a.i./ha) [%],Pre-emergence Herbicidal Activity GLXMA (growth controlling degree) ([2]; Rate 63 g a.i./ha) [%],Pre-emergence Herbicidal Activity TRZAX (growth controlling degree) ([4]; Rate 63 g a.i./ha) [%],Pre-emergence Herbicidal Activity ECHCG (growth controlling degree) ([6]; Rate 63 g a.i./ha) [%],Pre-emergence Herbicidal Activity SIDSP (growth controlling degree) ([10]; Rate 63 g a.i./ha) [%],Pre-emergence Herbicidal Activity SETVI (growth controlling degree) ([12]; Rate 63 g a.i./ha) [%],Pre-emergence Herbicidal Activity ORYSA (growth controlling degree) ([13]; Rate 63 g a.i./ha) [%],Pre-emergence Herbicidal Activity DIGSP (growth controlling degree) ([17]; Rate 63 g a.i./ha) [%],Pre-emergence Herbicidal Activity ZEAMX (growth controlling degree) ([18]; Rate 63 g a.i./ha) [%],Pre-emergence Herbicidal Activity AMARE (growth controlling degree) ([19]; Rate 63 g a.i./ha) [%],further results
COc1c(Cl)cc(F)c(-c2nn(C)c(OC(F)F)c2Cl)c1NC(=O)C(C)c1ccccc1 (stereo not drawn) [Compound 1-41],20,40,100,40,30,30,100,0,30,–,–,–,–,–,–,–,–,–,–,Pre-emergence Herbicidal Activity ABUTH (growth controlling degree) ([1]; Rate 10 g a.i./ha): 0%; Pre-emergence Herbicidal Activity GLXMA (growth controlling degree) ([2]; Rate 10 g a.i./ha): 0%; Pre-emergence Herbicidal Activity TRZAX (growth controlling degree) ([4]; Rate 10 g a.i./ha): 0%; Pre-emergence Herbicidal Activity ECHCG (growth controlling degree) ([6]; Rate 10 g a.i./ha): 30%; Pre-emergence Herbicidal Activity SIDSP (growth controlling degree) ([10]; Rate 10 g a.i./ha): 40%; Pre-emergence Herbicidal Activity SETVI (growth controlling degree) ([12]; Rate 10 g a.i./ha): 100%; Pre-emergence Herbicidal Activity ORYSA (growth controlling degree) ([13]; Rate 10 g a.i./ha): 0%; Pre-emergence Herbicidal Activity DIGSP (growth controlling degree) ([17]; Rate 10 g a.i./ha): 50%; Pre-emergence Herbicidal Activity ZEAMX (growth controlling degree) ([18]; Rate 10 g a.i./ha): 0%; Pre-emergence Herbicidal Activity AMARE (growth controlling degree) ([19]; Rate 10 g a.i./ha): 50%
COc1c(Cl)cc(F)c(-c2nn(C)c(OC(F)F)c2Cl)c1NC(=O)OCC1CCCCC1 [Compound 1-73],100,70,100,50,50,10,100,10,50,10,0,0,30,20,60,10,20,0,100,–
COc1c(Cl)cc(F)c(-c2nn(C)c(OC(F)F)c2Cl)c1NC(=O)C=Cc1ccccc1F [Compound 1-256],60,90,100,60,60,60,100,30,80,70,0,10,60,60,70,30,90,0,100,–
